Data as given in ChEMBL document CHEMBL5653631, “A Potent and Selective ULK1 Inhibitor Suppresses Autophagy and Sensitizes Cancer Cells to Nutrient Stress” (iScience, 2018).

Assays:
[1] = target: Insulin-like growth factor 1 receptor (Homo sapiens) (UniProt P08069); experiment: Inhibition of human recombinant IGF1R at 500 nM in presence of ATP by radiometric assay relative to control
[2] = target: MAP kinase-activated protein kinase 2 (Homo sapiens) (UniProt P49137); experiment: Inhibition of human recombinant MAPKAPK2 at 500 nM related to control ULK1
[3] = target: T1, Receptor-interacting serine/threonine-protein kinase 1 (Homo sapiens) (UniProt Q13546); experiment: Inhibition of human recombinant RIPK1 at 500 nM in presence of ATP by radiometric assay relative to control
T1 sequence (whole entry): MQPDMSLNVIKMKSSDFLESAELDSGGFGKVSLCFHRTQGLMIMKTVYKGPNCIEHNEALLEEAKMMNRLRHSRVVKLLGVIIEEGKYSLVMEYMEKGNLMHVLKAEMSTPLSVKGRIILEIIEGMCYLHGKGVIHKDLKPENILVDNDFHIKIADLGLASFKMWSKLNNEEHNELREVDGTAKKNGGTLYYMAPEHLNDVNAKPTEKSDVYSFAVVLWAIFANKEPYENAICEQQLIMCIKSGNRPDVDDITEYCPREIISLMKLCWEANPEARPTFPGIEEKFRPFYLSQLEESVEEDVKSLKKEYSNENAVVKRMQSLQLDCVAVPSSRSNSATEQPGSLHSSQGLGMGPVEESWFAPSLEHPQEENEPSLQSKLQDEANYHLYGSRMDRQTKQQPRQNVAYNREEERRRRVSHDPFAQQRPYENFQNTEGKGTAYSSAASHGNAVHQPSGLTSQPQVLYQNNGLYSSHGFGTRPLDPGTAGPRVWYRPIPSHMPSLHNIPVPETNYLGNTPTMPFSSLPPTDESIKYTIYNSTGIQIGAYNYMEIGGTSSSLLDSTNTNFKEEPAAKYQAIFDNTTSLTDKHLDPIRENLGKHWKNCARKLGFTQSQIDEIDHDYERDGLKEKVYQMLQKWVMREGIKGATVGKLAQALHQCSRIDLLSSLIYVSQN

[4] = target: Dual specificity protein kinase CLK3 (Homo sapiens) (UniProt P49761); experiment: Inhibition of human recombinant CLK3 at 500 nM in presence of ATP by radiometric assay relative to control
[5] = target: T2, Homeodomain-interacting protein kinase 4 (Homo sapiens) (UniProt Q8NE63); experiment: Inhibition of human recombinant HIPK4 at 500 nM related to control ULK1
T2 sequence (whole entry): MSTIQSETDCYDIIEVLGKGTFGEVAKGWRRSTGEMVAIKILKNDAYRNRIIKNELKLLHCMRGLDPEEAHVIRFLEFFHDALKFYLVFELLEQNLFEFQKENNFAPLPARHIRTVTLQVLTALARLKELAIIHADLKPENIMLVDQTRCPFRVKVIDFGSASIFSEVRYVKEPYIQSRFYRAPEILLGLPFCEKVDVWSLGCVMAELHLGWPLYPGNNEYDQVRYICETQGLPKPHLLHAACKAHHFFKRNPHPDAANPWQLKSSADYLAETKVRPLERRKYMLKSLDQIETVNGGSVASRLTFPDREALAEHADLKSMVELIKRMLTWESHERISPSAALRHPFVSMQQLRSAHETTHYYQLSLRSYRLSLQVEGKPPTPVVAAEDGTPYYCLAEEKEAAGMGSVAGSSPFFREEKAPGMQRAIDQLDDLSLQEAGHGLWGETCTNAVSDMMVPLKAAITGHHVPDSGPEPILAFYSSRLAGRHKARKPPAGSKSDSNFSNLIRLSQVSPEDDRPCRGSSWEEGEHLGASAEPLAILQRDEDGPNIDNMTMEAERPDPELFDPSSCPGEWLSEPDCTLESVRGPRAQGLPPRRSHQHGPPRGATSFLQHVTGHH

[6] = target: T3, Serine/threonine-protein kinase haspin (Homo sapiens) (UniProt Q8TF76); experiment: Inhibition of human recombinant Haspin at 500 nM related to control ULK1
T3 sequence (whole entry): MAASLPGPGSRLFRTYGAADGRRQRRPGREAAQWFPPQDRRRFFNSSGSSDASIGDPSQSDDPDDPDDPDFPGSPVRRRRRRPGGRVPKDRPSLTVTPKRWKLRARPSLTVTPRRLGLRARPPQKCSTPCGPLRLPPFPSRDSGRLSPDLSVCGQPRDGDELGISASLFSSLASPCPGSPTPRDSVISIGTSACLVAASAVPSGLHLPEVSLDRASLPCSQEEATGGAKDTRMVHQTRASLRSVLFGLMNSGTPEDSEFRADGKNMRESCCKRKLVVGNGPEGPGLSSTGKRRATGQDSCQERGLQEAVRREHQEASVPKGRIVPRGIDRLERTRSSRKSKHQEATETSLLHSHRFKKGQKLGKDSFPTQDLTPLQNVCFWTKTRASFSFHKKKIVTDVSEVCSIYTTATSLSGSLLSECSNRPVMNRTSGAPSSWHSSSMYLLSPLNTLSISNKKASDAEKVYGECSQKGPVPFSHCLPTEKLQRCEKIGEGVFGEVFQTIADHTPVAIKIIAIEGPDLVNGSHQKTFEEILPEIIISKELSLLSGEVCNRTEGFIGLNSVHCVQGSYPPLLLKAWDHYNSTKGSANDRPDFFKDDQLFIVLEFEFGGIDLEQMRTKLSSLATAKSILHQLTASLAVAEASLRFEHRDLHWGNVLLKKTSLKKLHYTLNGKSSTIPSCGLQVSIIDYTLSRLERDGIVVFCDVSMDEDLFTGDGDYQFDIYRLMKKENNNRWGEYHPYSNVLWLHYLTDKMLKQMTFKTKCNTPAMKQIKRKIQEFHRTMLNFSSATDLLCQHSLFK

[7] = target: Serine/threonine-protein kinase pim-2 (Homo sapiens) (UniProt Q9P1W9); experiment: Inhibition of human recombinant PIM2 at 15 nM related to control ULK1
Chain of Serine/threonine-protein kinase pim-2 (Homo sapiens) (Q9P1W9 whole entry, looked up): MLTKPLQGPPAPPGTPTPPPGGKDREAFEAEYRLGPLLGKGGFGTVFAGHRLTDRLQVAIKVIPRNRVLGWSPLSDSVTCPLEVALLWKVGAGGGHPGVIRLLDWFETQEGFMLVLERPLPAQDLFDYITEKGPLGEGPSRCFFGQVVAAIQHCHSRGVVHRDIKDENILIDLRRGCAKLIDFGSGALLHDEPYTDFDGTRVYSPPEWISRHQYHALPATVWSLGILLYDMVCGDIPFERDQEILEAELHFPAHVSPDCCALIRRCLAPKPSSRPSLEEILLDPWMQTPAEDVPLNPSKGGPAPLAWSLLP

Chain of Insulin-like growth factor 1 receptor (Homo sapiens) (P08069 31-736 limits assumed): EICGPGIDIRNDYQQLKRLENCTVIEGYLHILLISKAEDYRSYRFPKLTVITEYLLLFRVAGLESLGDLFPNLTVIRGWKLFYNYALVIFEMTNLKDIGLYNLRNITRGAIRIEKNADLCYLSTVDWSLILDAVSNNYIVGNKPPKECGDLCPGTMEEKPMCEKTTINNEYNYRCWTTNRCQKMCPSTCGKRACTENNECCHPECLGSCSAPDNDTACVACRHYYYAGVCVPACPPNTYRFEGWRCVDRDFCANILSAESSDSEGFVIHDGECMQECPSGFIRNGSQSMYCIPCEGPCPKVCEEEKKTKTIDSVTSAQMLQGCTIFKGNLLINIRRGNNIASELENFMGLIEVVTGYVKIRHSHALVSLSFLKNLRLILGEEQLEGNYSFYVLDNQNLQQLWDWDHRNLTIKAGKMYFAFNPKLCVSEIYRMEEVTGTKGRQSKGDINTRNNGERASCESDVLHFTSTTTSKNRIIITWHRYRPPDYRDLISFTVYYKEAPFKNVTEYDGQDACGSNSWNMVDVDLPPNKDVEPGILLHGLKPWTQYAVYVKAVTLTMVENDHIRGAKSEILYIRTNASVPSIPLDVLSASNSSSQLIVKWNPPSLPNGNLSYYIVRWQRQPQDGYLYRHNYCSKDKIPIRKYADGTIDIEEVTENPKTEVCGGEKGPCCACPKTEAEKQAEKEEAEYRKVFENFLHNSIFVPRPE
Chain of Insulin-like growth factor 1 receptor (Homo sapiens) (P08069 741-1367 limits assumed): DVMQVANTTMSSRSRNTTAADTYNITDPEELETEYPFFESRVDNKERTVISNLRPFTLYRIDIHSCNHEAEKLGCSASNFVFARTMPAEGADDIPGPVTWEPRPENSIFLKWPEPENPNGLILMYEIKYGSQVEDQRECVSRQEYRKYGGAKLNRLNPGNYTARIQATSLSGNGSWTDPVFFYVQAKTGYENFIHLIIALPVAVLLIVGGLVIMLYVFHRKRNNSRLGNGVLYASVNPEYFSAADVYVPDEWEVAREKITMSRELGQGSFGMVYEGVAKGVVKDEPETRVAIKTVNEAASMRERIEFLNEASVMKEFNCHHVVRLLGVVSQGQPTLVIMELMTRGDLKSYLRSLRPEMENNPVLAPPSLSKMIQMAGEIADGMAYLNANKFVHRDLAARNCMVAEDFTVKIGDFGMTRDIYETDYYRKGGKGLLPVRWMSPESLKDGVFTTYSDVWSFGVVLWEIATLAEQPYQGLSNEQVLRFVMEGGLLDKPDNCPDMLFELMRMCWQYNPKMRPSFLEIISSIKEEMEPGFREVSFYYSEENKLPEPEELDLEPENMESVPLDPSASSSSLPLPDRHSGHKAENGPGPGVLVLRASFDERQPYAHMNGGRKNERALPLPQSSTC
Chain of Dual specificity protein kinase CLK3 (Homo sapiens) (P49761 whole entry, looked up): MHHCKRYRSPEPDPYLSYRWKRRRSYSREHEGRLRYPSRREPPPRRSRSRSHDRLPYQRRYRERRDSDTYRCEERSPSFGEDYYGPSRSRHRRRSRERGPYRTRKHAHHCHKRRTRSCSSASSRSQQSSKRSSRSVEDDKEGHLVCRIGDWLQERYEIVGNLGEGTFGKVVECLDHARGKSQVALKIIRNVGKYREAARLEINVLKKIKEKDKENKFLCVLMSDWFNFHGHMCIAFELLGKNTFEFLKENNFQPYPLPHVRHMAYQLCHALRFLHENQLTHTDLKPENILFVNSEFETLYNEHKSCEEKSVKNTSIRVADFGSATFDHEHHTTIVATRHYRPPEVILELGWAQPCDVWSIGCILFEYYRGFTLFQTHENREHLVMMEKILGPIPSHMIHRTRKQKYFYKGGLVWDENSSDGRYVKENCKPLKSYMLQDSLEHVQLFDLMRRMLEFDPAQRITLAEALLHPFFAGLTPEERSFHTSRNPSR
Chain of MAP kinase-activated protein kinase 2 (Homo sapiens) (P49137 whole entry, looked up): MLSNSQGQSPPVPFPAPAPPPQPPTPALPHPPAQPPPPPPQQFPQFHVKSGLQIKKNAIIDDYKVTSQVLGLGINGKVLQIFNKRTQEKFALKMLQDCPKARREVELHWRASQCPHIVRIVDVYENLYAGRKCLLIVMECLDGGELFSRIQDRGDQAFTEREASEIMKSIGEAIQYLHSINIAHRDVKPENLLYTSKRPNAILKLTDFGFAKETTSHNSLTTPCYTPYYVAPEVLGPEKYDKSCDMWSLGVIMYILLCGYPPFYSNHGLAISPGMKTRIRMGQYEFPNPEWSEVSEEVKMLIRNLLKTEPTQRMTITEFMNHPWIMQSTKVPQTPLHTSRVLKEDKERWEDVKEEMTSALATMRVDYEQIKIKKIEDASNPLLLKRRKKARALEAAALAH

Row | Structure (SMILES) | inhibition [1] [%] | fold change (FC) [2] | inhibition [3] [%] | inhibition [4] [%] | fold change (FC) [5] | fold change (FC) [6] | fold change (FC) [7]
1 | CNC(=O)c1ccccc1Oc1nc(Nc2cc(OC)c(OC)c(OC)c2)ncc1Br | 3 | 0 | 7 | 0 | 0.12 | 0 | 
2 | CC(C)[C@H](NC(=O)c1cc(-c2cnn3cc(-c4ccc(OCCN5CCCCC5)cc4)cnc23)cs1)C(F)(F)F |  |  |  |  |  |  | 0
